# Results reported in the NIST ThermoML archive (doi:10.1021/je800150h).
# Numbers after ± are expanded uncertainties.
# Details: 101 kPa, Liquid
SMILES,mass density (278.1 K),viscosity (278.1 K),mass density (283.1 K),viscosity (283.1 K),viscosity (288.15 K),viscosity (293.15 K),viscosity (298.15 K),viscosity (303.15 K),mass density (308.15 K),viscosity (308.15 K),viscosity (313.15 K),viscosity (318.15 K),viscosity (323.15 K),other results
CCO [ethanol],802.6 ± 3.4 kg/m3,1.629 ± 0.077 mPa·s,798.4 ± 3.1 kg/m3,1.468 ± 0.07 mPa·s,1.341 ± 0.065 mPa·s,1.207 ± 0.059 mPa·s,1.105 ± 0.054 mPa·s,1.01 ± 0.05 mPa·s,777.1 ± 3.2 kg/m3,0.92 ± 0.046 mPa·s,0.84 ± 0.043 mPa·s,0.772 ± 0.04 mPa·s,0.713 ± 0.037 mPa·s,mass density (268.1 K): 811.1 ± 3.8 kg/m3; viscosity (268.1 K): 1.975 ± 0.093 mPa·s; mass density (273.1 K): 806.8 ± 3.6 kg/m3; viscosity (273.1 K): 1.775 ± 0.084 mPa·s; mass density (288.15 K): 794.2 ± 2.9 kg/m3; mass density (293.15 K): 789.9 ± 2.7 kg/m3; mass density (298.15 K): 785.7 ± 2.9 kg/m3; mass density (303.15 K): 781.4 ± 3.1 kg/m3; mass density (313.15 K): 772.8 ± 3.4 kg/m3; mass density (318.15 K): 767.9 ± 3.6 kg/m3; mass density (323.15 K): 763.4 ± 3.7 kg/m3
O [water],999.9 ± 4.4 kg/m3,1.519 ± 0.072 mPa·s,999.7 ± 4.2 kg/m3,1.308 ± 0.063 mPa·s,1.14 ± 0.056 mPa·s,1.005 ± 0.05 mPa·s,0.894 ± 0.045 mPa·s,0.799 ± 0.041 mPa·s,994.1 ± 4.3 kg/m3,0.723 ± 0.038 mPa·s,0.655 ± 0.035 mPa·s,0.599 ± 0.032 mPa·s,0.548 ± 0.03 mPa·s,–
